Data: ChEMBL document CHEMBL3425421, “Chromone derivatives from a sponge-derived strain of the fungus Corynespora cassiicola” (J Nat Prod, 2015)
The source made the active and inactive calls.

Columns and labels:
[1] = biological target: Acetylcholinesterase (Electrophorus electricus) (UniProt O42275); assay: Inhibition of electric eel AChE using acetylthiocholine iodide as substrate by Ellman's method
Staphylococcus = assay: Antibacterial activity against Staphylococcus albus assessed as absence of growth after 18 hrs by conventional broth dilution assay; format: functional, organism-based
Bacillus subtilis = assay: Antibacterial activity against Bacillus subtilis assessed as absence of growth after 18 hrs by conventional broth dilution assay; format: functional, organism-based
[2] = biological target: T1, DNA topoisomerase (Bos taurus) (UniProt A0JN73); assay: Inhibition of calf thymus Topoisomerase 1 relaxation activity by plasmid relaxation assay
T1 sequence (whole entry): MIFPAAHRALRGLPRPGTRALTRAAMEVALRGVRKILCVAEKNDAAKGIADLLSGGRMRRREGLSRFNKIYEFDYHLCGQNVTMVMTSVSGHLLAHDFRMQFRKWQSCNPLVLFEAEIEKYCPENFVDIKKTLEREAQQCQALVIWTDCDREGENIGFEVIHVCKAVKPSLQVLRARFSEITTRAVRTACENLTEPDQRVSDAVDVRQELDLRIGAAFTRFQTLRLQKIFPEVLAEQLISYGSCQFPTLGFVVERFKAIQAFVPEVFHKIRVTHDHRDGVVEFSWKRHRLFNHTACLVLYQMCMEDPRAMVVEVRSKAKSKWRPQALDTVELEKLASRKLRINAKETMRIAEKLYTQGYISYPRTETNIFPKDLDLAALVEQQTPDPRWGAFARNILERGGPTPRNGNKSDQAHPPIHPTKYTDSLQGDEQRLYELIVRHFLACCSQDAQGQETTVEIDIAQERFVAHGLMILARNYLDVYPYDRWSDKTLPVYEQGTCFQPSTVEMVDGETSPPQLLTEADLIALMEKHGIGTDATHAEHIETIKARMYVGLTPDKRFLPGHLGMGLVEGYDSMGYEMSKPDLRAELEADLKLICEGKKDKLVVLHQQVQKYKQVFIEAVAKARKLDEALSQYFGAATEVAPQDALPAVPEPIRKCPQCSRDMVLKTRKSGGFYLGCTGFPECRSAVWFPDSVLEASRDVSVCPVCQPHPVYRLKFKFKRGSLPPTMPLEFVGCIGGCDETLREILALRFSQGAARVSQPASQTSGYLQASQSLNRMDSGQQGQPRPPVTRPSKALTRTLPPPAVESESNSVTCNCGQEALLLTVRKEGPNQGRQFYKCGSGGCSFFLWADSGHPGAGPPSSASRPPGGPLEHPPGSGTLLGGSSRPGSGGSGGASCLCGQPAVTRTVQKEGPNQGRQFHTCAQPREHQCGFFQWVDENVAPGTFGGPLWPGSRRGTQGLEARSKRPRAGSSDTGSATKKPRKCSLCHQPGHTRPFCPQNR

Vibrio parahaemolyticus = assay: Antibacterial activity against Vibrio parahaemolyticus assessed as absence of growth after 18 hrs by conventional broth dilution assay; format: functional, organism-based
A549 = assay: Cytotoxicity against human A549 cells by MTT assay; format: functional, cell-based
Bacillus cereus = assay: Antibacterial activity against Bacillus cereus assessed as absence of growth after 18 hrs by conventional broth dilution assay; format: functional, organism-based
K562 = assay: Cytotoxicity against human K562 cells by MTT assay; format: functional, cell-based
HL-60 = assay: Cytotoxicity against human HL60 cells by MTT assay; format: functional, cell-based
Pseudomonas putida = assay: Antibacterial activity against Pseudomonas putida assessed as absence of growth after 18 hrs by conventional broth dilution assay; format: functional, organism-based
Amphibalanus amphitrite = assay: Antifouling activity against Balanus amphitrite Darwin; format: functional, organism-based
HeLa = assay: Cytotoxicity against human HeLa cells by MTT assay; format: functional, cell-based
Staphylococcus aureus = assay: Antibacterial activity against Staphylococcus aureus assessed as absence of growth after 18 hrs by conventional broth dilution assay; format: functional, organism-based
[3] = system: Tetragenococcus halophilus; assay: Antibacterial activity against Tetragenococcus halophilus assessed as absence of growth after 18 hrs by conventional broth dilution assay; format: functional

Measured: inhibition

Sequence of Acetylcholinesterase (Electrophorus electricus) (O42275 24-633 limits assumed): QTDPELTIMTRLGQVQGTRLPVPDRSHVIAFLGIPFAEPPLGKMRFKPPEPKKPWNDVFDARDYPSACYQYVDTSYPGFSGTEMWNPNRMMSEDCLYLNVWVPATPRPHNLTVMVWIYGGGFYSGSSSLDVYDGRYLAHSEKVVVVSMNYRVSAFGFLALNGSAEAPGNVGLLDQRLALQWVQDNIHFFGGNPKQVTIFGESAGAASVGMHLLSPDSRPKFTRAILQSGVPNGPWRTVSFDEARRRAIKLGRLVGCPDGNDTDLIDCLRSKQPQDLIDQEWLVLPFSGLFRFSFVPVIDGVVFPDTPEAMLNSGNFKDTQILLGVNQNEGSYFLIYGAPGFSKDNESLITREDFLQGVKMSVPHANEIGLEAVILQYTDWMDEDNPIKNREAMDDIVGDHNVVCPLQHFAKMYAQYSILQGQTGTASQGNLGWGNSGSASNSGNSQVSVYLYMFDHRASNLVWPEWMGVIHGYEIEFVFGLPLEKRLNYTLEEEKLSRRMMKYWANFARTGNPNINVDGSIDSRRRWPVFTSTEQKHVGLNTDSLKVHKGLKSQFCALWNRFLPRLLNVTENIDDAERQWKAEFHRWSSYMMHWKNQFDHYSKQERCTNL

COc1c(O)cc(CC(=O)O)c2c1O[C@H](C[C@H](C)O)CC2=O
inactive: [1] | Staphylococcus | Bacillus subtilis | [2] | Vibrio parahaemolyticus | A549 | Bacillus cereus | K562 | HL-60 | Pseudomonas putida | Amphibalanus amphitrite | HeLa | Staphylococcus aureus | [3]

CC(C)COC(=O)Cc1cc(O)cc2c1C(=O)C[C@@H](C[C@H](C)O)O2
inactive: [1] | Staphylococcus | Bacillus subtilis | [2] | Vibrio parahaemolyticus | A549 | Bacillus cereus | K562 | HL-60 | Pseudomonas putida | Amphibalanus amphitrite | HeLa | Staphylococcus aureus | [3]

CCOC(=O)Cc1cc(O)cc2oc(/C=C/C[C@H](C)O)cc(=O)c12
inactive: [1] | Staphylococcus | Bacillus subtilis | [2] | Vibrio parahaemolyticus | A549 | Bacillus cereus | K562 | HL-60 | Pseudomonas putida | Amphibalanus amphitrite | HeLa | Staphylococcus aureus | [3]

CC(C)COC(=O)Cc1cc(O)cc2c1C(=O)C[C@H](C[C@H](C)O)O2
inactive: [1] | Staphylococcus | Bacillus subtilis | [2] | Vibrio parahaemolyticus | A549 | Bacillus cereus | K562 | HL-60 | Pseudomonas putida | Amphibalanus amphitrite | HeLa | Staphylococcus aureus | [3]

Cc1cc(=O)c2c(CC(=O)OCC(C)C)cc(O)cc2o1
inactive: [1] | Staphylococcus | Bacillus subtilis | [2] | Vibrio parahaemolyticus | A549 | Bacillus cereus | K562 | HL-60 | Pseudomonas putida | Amphibalanus amphitrite | HeLa | Staphylococcus aureus | [3]

CCOC(=O)Cc1cc(O)cc2c1C(=O)C[C@H](C[C@H](C)O)O2
inactive: [1] | Staphylococcus | Bacillus subtilis | [2] | Vibrio parahaemolyticus | A549 | Bacillus cereus | K562 | HL-60 | Pseudomonas putida | Amphibalanus amphitrite | HeLa | Staphylococcus aureus | [3]

C[C@H](O)C[C@@H]1CC(=O)c2c(CC(=O)O)cc(O)cc2O1
inactive: [1] | Staphylococcus | Bacillus subtilis | [2] | Vibrio parahaemolyticus | A549 | Bacillus cereus | K562 | HL-60 | Pseudomonas putida | Amphibalanus amphitrite | HeLa | Staphylococcus aureus | [3]

C[C@H](O)C[C@H]1CC(=O)c2c(CC(=O)O)cc(O)cc2O1
inactive: [1] | Staphylococcus | Bacillus subtilis | [2] | Vibrio parahaemolyticus | A549 | Bacillus cereus | K562 | HL-60 | Pseudomonas putida | Amphibalanus amphitrite | HeLa | Staphylococcus aureus | [3]

CCOC(=O)Cc1cc(O)cc2c1C(=O)C[C@@H](C[C@H](C)O)O2
inactive: [1] | Staphylococcus | Bacillus subtilis | [2] | Vibrio parahaemolyticus | A549 | Bacillus cereus | K562 | HL-60 | Pseudomonas putida | Amphibalanus amphitrite | HeLa | Staphylococcus aureus | [3]

COc1c(O)cc(CC(=O)O)c2c1O[C@@H](C[C@H](C)O)CC2=O
inactive: [1] | Staphylococcus | Bacillus subtilis | [2] | Vibrio parahaemolyticus | A549 | Bacillus cereus | K562 | HL-60 | Pseudomonas putida | Amphibalanus amphitrite | HeLa | Staphylococcus aureus | [3]
